Reference: article PMC10095357, “Inhibition of Soluble Epoxide Hydrolase Activity by Components of Glycyrrhiza uralensis” (International Journal of Molecular Sciences, 2023)
“Also recorded” adds a separate entry of the source. Read-outs that look alike come from different tables or passages of the source.

Tests used:
[1] = target: T1, Human recombinant sEH (Homo sapiens, UniProt P34913); test: sEH assay (fluorescent substrate hydrolysis, inhibitory activity and IC50); format: biochemical; settings: for inhibition at 100 µM: read-out: Inhibitory Activity at 100 μM (%); for IC50: sEH inhibition
T1 construct: purchased Cayman Chemical (Ann Arbor, MI, USA) 10011669
T1 sequence (P34913 1-555): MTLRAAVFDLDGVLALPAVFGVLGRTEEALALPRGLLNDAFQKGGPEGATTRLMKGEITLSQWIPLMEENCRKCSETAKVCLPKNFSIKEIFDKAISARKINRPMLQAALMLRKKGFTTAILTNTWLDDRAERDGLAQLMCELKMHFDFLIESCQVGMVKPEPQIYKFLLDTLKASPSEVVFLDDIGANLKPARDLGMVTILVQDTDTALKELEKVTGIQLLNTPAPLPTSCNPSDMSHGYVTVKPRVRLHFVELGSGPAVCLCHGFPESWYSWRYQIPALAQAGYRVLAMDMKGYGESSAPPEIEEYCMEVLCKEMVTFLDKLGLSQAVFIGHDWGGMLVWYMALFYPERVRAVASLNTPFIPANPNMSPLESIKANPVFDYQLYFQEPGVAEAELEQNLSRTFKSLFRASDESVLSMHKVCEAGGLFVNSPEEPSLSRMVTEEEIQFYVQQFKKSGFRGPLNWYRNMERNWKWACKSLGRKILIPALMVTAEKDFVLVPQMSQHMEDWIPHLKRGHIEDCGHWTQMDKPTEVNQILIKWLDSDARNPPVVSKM

[2] = target: T1, Human recombinant sEH; test: sEH enzyme kinetics (Lineweaver–Burk and Dixon plots); format: biochemical; settings: for Ki: Dixon plot analysis; for Binding Mode: Lineweaver–Burk plot
[3] = compound at 100 μM, tested three times

inhibition at 100 µM [1, 3] | sEH inhibitory effect (in words) ([1]; conclusion statement) | IC50 [1] | Ki [2] | Molecule | Binding Mode [2] | Inhibitory Activity at 100 μM (%) [1, 3] | sEH inhibitory effect (in words) [1] | inhibition at 100 µM [1]
68.4 ± 3.1% | moderate inhibitory effects | 85.7 ± 1.2 µM | 75.6 µM | CC(C)=CCc1cc(-c2coc3cc(O)c(CC=C(C)C)c(O)c3c2=O)cc(O)c1O [Compound 11, isoangustone A] | noncompetitive inhibitors; also recorded: non-competitive |  |  | 
85.1 ± 0.3% |  | 16.2 ± 0.3 µM | 19.8 µM | COc1cc(O)ccc1C(=O)/C=C/c1ccc(O)cc1 [Compound 7, 2′-methoxyisoliquiritigenin] | competitive inhibitors |  |  | 
 |  |  |  | isoliquiritin apioside [Compound 6] | Noncompetitive | 79.3 ± 1.4% |  | 
46.8 ± 0.8% |  |  |  | O=C1C[C@@H](c2ccc(O[C@@H]3O[C@H](CO)[C@@H](O)[C@H](O)[C@H]3O)cc2)Oc2cc(O)ccc21 [Compound 2, liquiritin] |  |  |  | 
> 100% | potent effect | 1.9 ± 0.2 µM | 2 µM | COc1c(CC=C(C)C)c(O)cc2oc(=O)c(-c3ccc(O)cc3O)cc12 [Compound 10, glycycoumarin] | competitive inhibitors |  |  | 
 |  | 17.6 ± 0.6 µM | 24.2 µM | O=C(/C=C/c1ccc(O)cc1)c1ccc(O)cc1O [Compound 4, isoliquiritigenin] | Noncompetitive |  |  | 
18.4% | lacked such an effect |  |  | CC1(C)[C@@H](O[C@H]2O[C@H](C(=O)O)[C@@H](O)[C@H](O)[C@H]2O[C@@H]2O[C@H](C(=O)O)[C@@H](O)[C@H](O)[C@H]2O)CC[C@]2(C)[C@H]3C(=O)C=C4[C@@H]5C[C@@](C)(C(=O)O)CC[C@]5(C)CC[C@@]4(C)[C@]3(C)CC[C@@H]12 [Glycyrrhizin, reference compound] |  |  |  | 
69.5 ± 0.5% |  | 42.5 ± 1.5 µM | 41.1 µM | COc1c(CC=C(C)C)c(O)cc2oc(=O)c3c4ccc(O)cc4oc3c12 [Compound 9, glycyrol] | noncompetitive inhibitors; also recorded: non-competitive |  |  | 
60.7 ± 1.3% |  | 35.7 ± 0.7 µM | 54.4 µM | COc1ccc(-c2coc3cc(O[C@@H]4O[C@H](CO)[C@@H](O)[C@H](O)[C@H]4O)ccc3c2=O)cc1 [Compound 8, ononin] | competitive inhibitors |  |  | 
 |  |  |  | liquiritin apioside [Compound 3] | competitive inhibitors | 57.6 ± 1.1% |  | 

Molecule | inhibition at 100 µM [1, 3] | sEH inhibitory effect (in words) ([1]; conclusion statement) | IC50 [1] | Ki [2] | Binding Mode [2] | Inhibitory Activity at 100 μM (%) [1, 3] | sEH inhibitory effect (in words) [1] | inhibition at 100 µM [1]
O=C1C[C@@H](c2ccc(O)cc2)Oc2cc(O)ccc21 [Compound 1, liquiritigenin] |  |  | 40.1 ± 1.2 µM | 63.1 µM | noncompetitive inhibitors; also recorded: non-competitive |  | moderate inhibitory effects | 61.5 ± 1.2%
O=C(/C=C/c1ccc(O[C@@H]2O[C@H](CO)[C@@H](O)[C@H](O)[C@H]2O)cc1)c1ccc(O)cc1O [Compound 5, isoliquiritin] | 80.2 ± 0.3% |  | 25.8 ± 0.2 µM | 48.8 µM | Noncompetitive |  |  | 
